Reference: ChEMBL document CHEMBL1150603, “Ecteinascidins 770 and 786 from the Thai tunicate Ecteinascidia thurstoni” (J Nat Prod, 2002)
In brackets after ≈: the same amount, converted by molar mass.

Assays:
[1] = Cytotoxicity against breast cancer cells; assay type: functional, cell-based; conditions: Cancer cell lines
KB = assay: Cytotoxicity against human KB cells; assay type: functional, cell-based
[2] = system: Mycobacterium tuberculosis; assay: Antitubercular activity against Mycobacterium tuberculosis H37Ra; assay type: functional

With `COc1cc2c(cc1O)CCN[C@]21CS[C@@H]2c3c(OC(C)=O)c(C)c4c(c3[C@H](COC1=O)N1[C@@H]2[C@H]2c3c(cc(C)c(OC)c3O)C[C@@H]([C@@H]1C#N)N2C)OCO4` [ECTEINASCIDIN 770] the IC50 [1] was 2.5 nM, the IC50 (KB) was 0.034 nM and the MIC [2] was 0.13 µM (≈ 0.1 µg/mL).
For `COc1cc2c(cc1O)CCN[C@]21C[S+]([O-])[C@@H]2c3c(OC(C)=O)c(C)c4c(c3[C@H](COC1=O)N1[C@@H]2[C@@H]2c3c(cc(C)c(OC)c3O)C[C@@H]([C@@H]1C#N)N2C)OCO4` (stereo partly specified) [ECTEINASCIDIN 786], the IC50 [1] was 7.6 nM, the IC50 (KB) was 0.15 nM and the MIC [2] was 2 µM (≈ 1.57 µg/mL).
